Patent US6713476B2, “Substituted cycloalkyls as inhibitors of a beta protein production” (Dupont Pharmaceuticals Company, priority 2000, dated 2004)

melting point: 82 to 86 °C
Structure (SMILES): CN1C(=O)[C@@H](NC(=O)C2(CNC3CCCCC3)CCCC2)N=C(c2ccccc2)c2ccccc21
